We go through one molecule from paper PMC12084609, “Structural insights into small-molecule agonist recognition and activation of complement receptor C3aR” (The EMBO Journal, 2025).

What all share (format): cell-based
For test [1], the target named is T1, C3aR L30^1.39A (Homo sapiens, UniProt Q16581, L30A).
T1 construct: expressed in transfected cells; host or cells: HEK293T
T1 sequence (Q16581 1-482 L30A): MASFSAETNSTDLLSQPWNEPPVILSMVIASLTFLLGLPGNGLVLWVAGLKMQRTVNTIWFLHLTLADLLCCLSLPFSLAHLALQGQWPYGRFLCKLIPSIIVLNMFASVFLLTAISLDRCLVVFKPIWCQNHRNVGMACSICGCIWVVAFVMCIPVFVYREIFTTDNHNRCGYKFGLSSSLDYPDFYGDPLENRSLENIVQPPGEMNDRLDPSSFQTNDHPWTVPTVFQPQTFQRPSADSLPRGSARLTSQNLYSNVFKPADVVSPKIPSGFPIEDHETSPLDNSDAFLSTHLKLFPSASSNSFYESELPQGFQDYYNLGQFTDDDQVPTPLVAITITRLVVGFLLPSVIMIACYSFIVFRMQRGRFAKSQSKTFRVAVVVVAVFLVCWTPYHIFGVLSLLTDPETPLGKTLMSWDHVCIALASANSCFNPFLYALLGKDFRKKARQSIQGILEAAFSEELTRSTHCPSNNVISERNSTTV
Briefly: GloSensor-based cAMP assay, C3aR mutant L30A. As to the method: (§1) HEK293T cells were seeded on 6-well plates (NEST) and transfected with pGlosensor™-22F plasmids (Promega) and pcDNA3.1 plasmids encoding C3aR or its mutants an with N-terminal FLAG tag. After 48 h, cells were detached with Accutase solution (Sigma-Aldrich) and washed with PBS, and resuspended in assay buffer (CO2-independent medium with 0.5 mg mL^−1D-luciferin). 100,000–200,000 cells were seeded on 96-well white bottom plates (SPL) and incubated at 37 °C for 45 min followed by 45 min incubation at room temperature. After 90 min of incubation, basal luminescence signals were recorded. In total, 25 μl of test ligand with various concentrations and 1 μM Forskolin (Sigma-Aldrich) were treated to the cells and luminescence signals were measured by Tristar 2 LB 942 multimode reader (Berthold). […] Relative luminescence unit (%) was calculated with the signal of wells treated with vehicle as 0% and the signal of wells treated with 1 μM Forskolin as 100% (DiRaddo et al, [2014]). Nonlinear regression was performed using a three-parameter logistic equation.

The target in test [2] is T2, C3aR R340^5.42A (Homo sapiens, UniProt Q16581, R340A).
T2 construct: expressed in transfected cells; host or cells: HEK293T
T2 sequence (Q16581 1-482 R340A): T1 sequence (Q16581 1-482 L30A) with A30L, R340A
Briefly: GloSensor-based cAMP assay, C3aR mutant R340A. As to the method: as §1

The target in test [3] is T3, C3aR I102^3.32A/I421^7.39A (Homo sapiens, UniProt Q16581, I102A/I421A).
T3 construct: expressed in transfected cells; host or cells: HEK293T
T3 sequence (Q16581 1-482 I102A/I421A): T1 sequence (Q16581 1-482 L30A) with A30L, I102A, I421A
Briefly: GloSensor-based cAMP assay, C3aR double mutant I102A/I421A. As to the method:
as §1
On the technique in general: cAMP levels reflect the balance of adenylyl cyclase and phosphodiesterase activity.

The mark [4] stands for this setting: Dunnett's multiple comparisons test, WT minus mutant.

SMILES strings stand for the structures. Positions count from the first letter of the chain named. Where “and” joins values, the source holds several entries; their conditions need not be identical. Equal values may be shown once. Read-outs that look alike come from different tables or passages of the source.

As to `Cc1cc(C(c2ccc(Cl)cc2)c2ccc(Cl)cc2)sc1C(=O)N[C@@H](CCCNC(=N)N)C(=O)O` [JR14a, reference compound], the “Mean Diff. of pIC50, WT vs. L30A” value in test [1] (setting [4]) was 0.012. The IC50 was 5.58 nM in test [1] (IC50, L30^1.39A, dose-response plot); 8.91 nM and 6.92 nM in test [1] (pIC50 (Replicate), L30^1.39A, individual replicates); 5.37 nM in test [1] (pIC50 ± SEM (Mean), L30^1.39A, mean of independent experiments); 2.51 nM in test [1] (read-out: pIC50 (Replicate) (converted)); 478 nM in test [2] (IC50, R340^5.42A, dose-response plot); 537 nM in test [2] (pIC50 ± SEM (Mean), R340^5.42A, mean of independent experiments). The IC50 in test [3] (IC50, I102^3.32A/I421^7.39A, dose-response plot) is 1590 nM; in test [3] (pIC50 (Replicate), I102^3.32A/I421^7.39A, individual replicates), 2450 nM and 1150 nM and 1740 nM; in test [3] (pIC50 ± SEM (Mean), I102^3.32A/I421^7.39A, mean of independent experiments), 1700 nM. For the same molecule, the remaining activity at 1 µM amounted to 12.9% in test [1] (L30A, Log[JR14a (M)] -6, single replicates, read-out: cAMP response (% Forskolin)) and 78.9% in test [2] (R340A, Log[JR14a (M)] -6, single replicates, read-out: cAMP response (% Forskolin)). The remaining activity at 0.1 µM was determined as 13.4% in test [1] (L30A, Log[JR14a (M)] -7, single replicates, read-out: cAMP response (% Forskolin)) and 99.9% in test [2] (R340A, Log[JR14a (M)] -7, single replicates, read-out: cAMP response (% Forskolin)). In addition, the remaining activity at 0.001 µM in test [1] (L30A, Log[JR14a (M)] -9, single replicates, read-out: cAMP response (% Forskolin)) turned out to be 82.6%. Besides, the remaining activity at 0.0001 µM in test [1] (L30A, Log[JR14a (M)] -10, single replicates, read-out: cAMP response (% Forskolin)) came to 97.9%; in test [2] (R340A, Log[JR14a (M)] -10, single replicates, read-out: cAMP response (% Forskolin)), 105%. Besides, the remaining activity at 10 pM in test [1] (L30A, Log[JR14a (M)] -11, single replicates, read-out: cAMP response (% Forskolin)) was 98.1%; in test [2] (R340A, Log[JR14a (M)] -11, single replicates, read-out: cAMP response (% Forskolin)) it was 104%. In addition, the “ΔpIC50 ± SE of Diff.” value was -0.01 ± 0.01 in test [1] (L30^1.39A relative to WT C3aR), -2.28 ± 0.14 in test [2] (R340^5.42A relative to WT C3aR) and -2.34 ± 0.08 in test [3] (I102^3.32A/I421^7.39A relative to WT C3aR). Also, the “Mean Diff. of pIC50, WT vs. R340A” value in test [2] (setting [4]) is recorded as 2.282.
